Reference: patent US12390402B2, “High-content and sustained-release retinoid capsule, and composition for reducing wrinkles, containing same” (LG HOUSEHOLD & HEALTH CARE LTD., priority 2018, dated 2025)

Assay: Solubility of retinoic acid in the liquid lipid
Format: physicochemical
Protocol: FIG. 2 is the result of the solubility in oil according to the binding of an amine compound and retinoid.
As shown in the Table 2, the maximum concentration of the retinoic acid soluble in the liquid lipid was 0.1% of the weight of the liquid lipid, and when added more the above, the retinoic acid was not dissolved, making it impossible to synthesize capsules (Comparative examples 1, 2, 3). On the other hand, it was determined that the solubility of retinoic acid was increased over 10% of the weight of the liquid lipid, when the amine compound at the same mole concentration as retinoic acid was added during dissolving retinoic acid in the liquid lipid (See Table 2). Through this, the dry weight of the retinoid in the final capsule after washing could be increased 100 times from conventional 0.03% to 3%.

Q: With `CC1=C(/C=C/C(C)=C/C=C/C(C)=C/C(=O)O)C(C)(C)CCC1` [retinoic acid] as the compound, how does the “solubility of retinoic acid in the liquid lipid” value (amine compound added at the same mole concentration as retinoic acid) read?
A: over 10 % of the weight of the liquid lipid

Q: What about the “maximum concentration of the retinoic acid soluble in the liquid lipid” value (without amine compound, caprylic/capryl triglyceride) of the same compound?
A: 0.1 % of the weight of the liquid lipid
